According to patent US9237747B2, “Herbicidal compositions comprising 4-amino-3-chloro-5-fluoro-6-(4-chloro-2-fluoro-3-methoxyphenyl) pyridine-2-carboxylic acid or a derivative thereof and insecticides” (priority 2013, dated 2016):
“And” between values parts separate entries of the source, which are not always exact repeats. Equal values may be shown once. Read-outs that look alike come from different tables or passages of the source.

How the values were obtained:
[1] = test system: IPOHE; type: in vivo, Ipomoea hederacea
Experimental: (§1) Seeds or nutlets of the desired test plant species were planted in a soil matrix prepared by mixing a loam or sandy loam soil (e.g., 28.6 percent silt, 18.8 percent clay, and 52.6 percent sand, with a pH of about 5.8 and an organic matter content of about 1.8 percent) and calcareous grit in an 80 to 20 ratio. The soil matrix was contained in plastic pots with a volume of 1 quart and a surface area of 83.6 square centimeters (cm^2). […] The plants were grown for 8-22 days in a greenhouse with an approximate 14 hour (h) photoperiod which was maintained at about 29° C. during the day and 26° C. during the night. Nutrients (Peters Excel® 15-5-15 5-Ca 2-Mg and iron chelate) were applied in the irrigation solution as needed and water was added on a regular basis. Supplemental lighting was provided with overhead metal halide 1000-Watt lamps as necessary. The plants were employed for testing when they reached the first through fourth true leaf stage.
(§2) Treatments consisted of the acid or esters of 4-amino-3-chloro-6-(4-chloro-2-fluoro-3-methoxyphenyl)-5-fluoropyridine-2-carboxylic acid (Compound A), each formulated as an SC (suspension concentrate), and various insecticidal components alone and in combination. Forms of compound A were applied on an acid equivalent basis.
(§3) For treatments comprised of formulated compounds, measured amounts of compounds were placed individually in 25 mL glass vials and diluted in a volume of 1.25% volume per volume (v/v) Agri-Dex® crop oil concentrate to obtain 12× stock solutions. […] Application solutions were prepared by adding an appropriate amount of each stock solution (e.g., 1 mL) and diluted to the appropriate final concentrations with the addition of […] of an aqueous mixture of 1.25% (v/v) crop oil concentrate so that the final spray solutions contained 1.25+/−0.05% (v/v) crop oil concentrate.
(§4) As required, additional water and/or 97:3 v/v acetone/DMSO was added to individual application solutions so that the final acetone and DMSO concentrations of the application solutions being compared were 8.1% and 0.25%, respectively.
(§5) All stock solutions and applications solutions were visually inspected for compound compatibility prior to application. Spray solutions were applied to the plant material with an overhead Mandel track sprayer equipped with 8002E nozzles calibrated to deliver 187 L/ha over an application area of 0.503 square meters (m^2) at a spray height of 18 to 20 inches (46 to 50 cm) above average plant canopy height. Control plants were sprayed in the same manner with the solvent blank.
(§6) The treated plants and control plants were placed in a greenhouse as described above and watered by sub-irrigation to prevent wash-off of the test compounds. After approximately 3 weeks, the condition of the test plants as compared to that of the untreated plants was determined visually and scored on a scale of 0 to 100 percent where 0 corresponds to no injury or growth inhibition and 100 corresponds to complete kill.
(§7) Colby's equation was used to determine the herbicidal effects expected from the mixtures (Colby, S. R. Calculation of the synergistic and antagonistic response of herbicide combinations. Weeds 1967, 15, 20-22.).
(§8) The following equation was used to calculate the expected activity of mixtures containing two active ingredients, A and B: Expected=A+B−(A×B/100)

[2] = test system: ECHCG; type: in vivo, Echinochloa crus-galli
Experimental: as §1, §2, §3, §4, §5, §6, §7, §8

[3] = test system: CYPES; type: in vivo, Cyperus esculentus
Experimental: as §1, §2, §3, §4, §5, §6, §7, §8

[4] = test system: SCPJU; assay: Postemergence foliar-applied weed control, direct-seeded rice (greenhouse); type: in vivo, Schoenoplectus juncoides; conditions: 4.38 g ae/ha alone
Text: Seeds or nutlets of the desired test plant species were planted in a soil matrix prepared by mixing a loam or sandy loam soil (e.g., 28.6 percent silt, 18.8 percent clay, and 52.6 percent sand, with a pH of about 5.8 and an organic matter content of about 1.8 percent) and calcareous grit in an 80 to 20 ratio. The soil matrix was contained in plastic pots with a volume of 1 quart and a surface area of 83.6 square centimeters (cm^2). When required to ensure good germination and healthy plants, a fungicide treatment and/or other chemical or physical treatment was applied. The plants were grown for 8-22 days in a greenhouse with an approximate 14 hour (h) photoperiod which was maintained at about 29° C. during the day and 26° C. during the night. Nutrients (Peters Excel® 15-5-15 5-Ca 2-Mg and iron chelate) were applied in the irrigation solution as needed and water was added on a regular basis. […]
(§9) Treatment requirements were calculated based upon the rates being tested, the concentration of active ingredient or acid equivalent in the formulation, and a 12 milliliter (mL) application volume at a rate of 187 liters per hectare (L/ha).
For treatments comprised of formulated compounds, measured amounts of compounds were placed individually in 25 mL glass vials and diluted in a volume of 1.25% volume per volume (v/v) Agri-Dex® crop oil concentrate to obtain 12× stock solutions. […]

[5] = test system: LEFPA; assay: as above; type: in vivo, Leptochloa panicoides
Text: (§10) Seeds or nutlets of the desired test plant species were planted in a soil matrix prepared by mixing a loam or sandy loam soil (e.g., 28.6 percent silt, 18.8 percent clay, and 52.6 percent sand, with a pH of about 5.8 and an organic matter content of about 1.8 percent) and calcareous grit in an 80 to 20 ratio. The soil matrix was contained in plastic pots with a volume of 1 quart and a surface area of 83.6 square centimeters (cm^2). When required to ensure good germination and healthy plants, a fungicide treatment and/or other chemical or physical treatment was applied. The plants were grown for 8-22 days in a greenhouse with an approximate 14 hour (h) photoperiod which was maintained at about 29° C. during the day and 26° C. during the night. Nutrients (Peters Excel® 15-5-15 5-Ca 2-Mg and iron chelate) were applied in the irrigation solution as needed and water was added on a regular basis. Supplemental lighting was provided with overhead metal halide 1000-Watt lamps as necessary. The plants were employed for testing when they reached the first through fourth true leaf stage.
as §2, §9, §3, §4, §5, §6, §7, §8

[6] = test system: LEFFA; assay: as above; type: in vivo, Leptochloa fascicularis
Text: as §10, §2, §9, §3, §4, §5, §6, §7, §8

SMILES: COc1c(Cl)ccc(-c2nc(C(=O)O)c(Cl)c(N)c2F)c1F [Compound A Acid, 4-amino-3-chloro-6-(4-chloro-2-fluoro-3-methoxyphenyl)-5-fluoropyridine-2-carboxylic acid]
- Visual Weed Control (%) - 21 DAA IPOHE Obs ([1]; 5.3 g ae/ha alone): 10%
- Visual Weed Control (%) - 21 DAA IPOHE Obs ([1]; 10.6 g ae/ha alone): 10%
- Visual Weed Control (%) - 21 DAA IPOHE Obs ([1]; 21 DAA, 5.3 g ae/ha alone): 10%
- Visual Weed Control (%) - 21 DAA IPOHE Obs ([1]; 21 DAA, 10.6 g ae/ha alone): 10%
- Visual Weed Control (%) - 21 DAA IPOHE Obs ([1]; 21 DAA, 21.2 g ae/ha alone): 25%
- Visual Weed Control (%) - 21 DAA IPOHE Obs ([1]; 21.2 g ae/ha alone): 25%
- Visual Weed Control (%) - 20 DAA ECHCG Obs ([2]; 4.38 g ae/ha alone): 60%
- Visual Weed Control (%) - 20 DAA ECHCG Obs ([2]; 5.3 g ae/ha alone): 65%
- Visual Weed Control (%) - 20 DAA ECHCG Obs ([2]; 8.75 g ae/ha alone): 80%
- Visual Weed Control (%) - 20 DAA ECHCG Obs ([2]; 10.6 g ae/ha alone): 90%
- Visual Weed Control (%) - 20 DAA ECHCG Obs ([2]; 17.5 g ae/ha alone): 95%
- Visual Weed Control (%) - 21 DAA ECHCG Obs ([2]; 5.3 g ae/ha alone): 65%
- Visual Weed Control (%) - 21 DAA ECHCG Obs ([2]; 10.6 g ae/ha alone): 85%
- Visual Weed Control (%) - 21 DAA ECHCG Obs ([2]; 21.2 g ae/ha alone): 95%
- Visual Weed Control (%) - 20 DAA ECHCG Obs ([2]; 21.2 g ae/ha alone): 95%

SMILES: COc1c(Cl)ccc(-c2nc(C(=O)OCc3ccccc3)c(Cl)c(N)c2F)c1F [Compound A Benzyl Ester]
- Visual Weed Control (%) - 20 DAA CYPES Obs ([3]; 8 g ae/ha alone): 25%
- Visual Weed Control (%) - 22 DAA CYPES Obs ([3]; 8 g ae/ha alone): 70%
- Visual Weed Control (%) - 20 DAA CYPES Obs ([3]; 16 g ae/ha alone): 40%
- Visual Weed Control (%) - 22 DAA CYPES Obs ([3]; 16 g ae/ha alone): 95%
- Visual Weed Control (%) - 22 DAA CYPES Obs ([3]; 22 DAA, 8 g ae/ha alone): 70%
- Visual Weed Control (%) - 20 DAA CYPES Obs ([3]; 32 g ae/ha alone): 73%
- Visual Weed Control (%) - 20 DAA IPOHE Obs ([1]; 4.38 g ae/ha alone): 10%
- Visual Weed Control (%) - 20 DAA IPOHE Obs ([1]; 8 g ae/ha alone): 10%
- Visual Weed Control (%) - 21 DAA IPOHE Obs ([1]; 8 g ae/ha alone): 10%
- Visual Weed Control (%) - 20 DAA IPOHE Obs ([1]; 8.75 g ae/ha alone): 15%
- Visual Weed Control (%) - 20 DAA IPOHE Obs ([1]; 16 g ae/ha alone): 40%
- Visual Weed Control (%) - 21 DAA IPOHE Obs ([1]; 16 g ae/ha alone): 50%
- Visual Weed Control (%) - 22 DAA IPOHE Obs ([1]; 16 g ae/ha alone): 10%
- Visual Weed Control (%) - 19 DAA IPOHE Obs ([1]; 8 g ae/ha alone): 20%
- Visual Weed Control (%) - 19 DAA IPOHE Obs ([1]; 16 g ae/ha alone): 40%
- Visual Weed Control (%) - 19 DAA IPOHE Obs ([1]; 32 g ae/ha alone): 50%
- Visual Weed Control (%) - 21 DAA IPOHE Obs ([1]; 21 DAA, 4.38 g ae/ha alone): 10%
- Visual Weed Control (%) - 21 DAA IPOHE Obs ([1]; 21 DAA, 8 g ae/ha alone): 10%
- Visual Weed Control (%) - 21 DAA IPOHE Obs ([1]; 21 DAA, 8.75 g ae/ha alone): 10%
- Visual Weed Control (%) - 21 DAA IPOHE Obs ([1]; 21 DAA, 17.5 g ae/ha alone): 20%
- Visual Weed Control (%) - 22 DAA IPOHE Obs ([1]; 22 DAA, 16 g ae/ha alone): 10%
- Visual Weed Control (%) - 22 DAA IPOHE Obs ([1]; 22 DAA, 32 g ae/ha alone): 35%
- Visual Weed Control (%) - 20 DAA IPOHE Obs ([1]; 32 g ae/ha alone): 50%
- Visual Weed Control (%) - 21 DAA IPOHE Obs ([1]; 32 g ae/ha alone): 60%
- Visual Weed Control (%) - 22 DAA IPOHE Obs ([1]; 32 g ae/ha alone): 35%
- Visual Weed Control (%) - 20 DAA ECHCG Obs ([2]; 4.38 g ae/ha alone): 60% and 70%
- Visual Weed Control (%) - 19 DAA ECHCG Obs ([2]; 8 g ae/ha alone): 85%
- Visual Weed Control (%) - 20 DAA ECHCG Obs ([2]; 8 g ae/ha alone): 70%
- Visual Weed Control (%) - 22 DAA ECHCG Obs ([2]; 8 g ae/ha alone): 50%
- Visual Weed Control (%) - 20 DAA ECHCG Obs ([2]; 8.75 g ae/ha alone): 85% and 80%
- Visual Weed Control (%) - 19 DAA ECHCG Obs ([2]; 16 g ae/ha alone): 85%
- Visual Weed Control (%) - 22 DAA ECHCG Obs ([2]; 16 g ae/ha alone): 60%
- Visual Weed Control (%) - 20 DAA ECHCG Obs ([2]; 17.5 g ae/ha alone): 90% and 95%
- Visual Weed Control (%) - 21 DAA ECHCG Obs ([2]; 4.38 g ae/ha alone): 70%
- Visual Weed Control (%) - 21 DAA ECHCG Obs ([2]; 8.75 g ae/ha alone): 85%
- Visual Weed Control (%) - 21 DAA ECHCG Obs ([2]; 17.5 g ae/ha alone): 90%
- Visual Weed Control (%) - 22 DAA ECHCG Obs ([2]; 22 DAA, 8 g ae/ha alone): 45% and 50%
- Visual Weed Control (%) - 22 DAA ECHCG Obs ([2]; 22 DAA, 16 g ae/ha alone): 60%
- Visual Weed Control (%) - 22 DAA ECHCG Obs ([2]; 22 DAA, 32 g ae/ha alone): 90% and 95%
- Visual Weed Control (%) - 19 DAA ECHCG Obs ([2]; 32 g ae/ha alone): 95%
- Visual Weed Control (%) - 22 DAA SCPJU Obs [4]: 70%
- Visual Weed Control (%) - 22 DAA LEFPA Obs ([5]; 8 g ae/ha alone): 5%
- Visual Weed Control (%) - 22 DAA LEFPA Obs ([5]; 16 g ae/ha alone): 0%
- Visual Weed Control (%) - 22 DAA LEFPA Obs ([5]; 32 g ae/ha alone): 38%
- Visual Weed Control (%) - 22 DAA LEFFA Obs ([6]; 8 g ae/ha alone): 23%
- Visual Weed Control (%) - 22 DAA LEFFA Obs ([6]; 16 g ae/ha alone): 30%
- Visual Weed Control (%) - 22 DAA LEFFA Obs ([6]; 22 DAA, 8 g ae/ha alone): 23%
- Visual Weed Control (%) - 22 DAA LEFFA Obs ([6]; 22 DAA, 16 g ae/ha alone): 30%
- Visual Weed Control (%) - 22 DAA LEFFA Obs ([6]; 22 DAA, 32 g ae/ha alone): 45%
- Visual Weed Control (%) - 22 DAA LEFFA Obs ([6]; 32 g ae/ha alone): 45%
